Data taken from US12723063B2, “GIPR-agonist compounds” (Eli Lilly and Company, priority 2019, dated 2026).
*1 amine or outer side, *2 acyl side, *3 side chain or, on linkers, in order; H or OH if unused. Where a SMILES comes first, the peptide text is derived from it. Side-chain parts run from the residue outwards. [ ]: non-standard residue; d: D form. The star is where a group is joined. C20 diacid = O=C(O)CCCCCCCCCCCCCCCCCCC(=O)*; C18 diacid = O=C(O)CCCCCCCCCCCCCCCCC(=O)*; αMePhe(2-F) = C[C@](N)(Cc1ccccc1F)C(=O)O; γGlu = O=C(O)[C@H](CCC(=O)[*:2])N[*:1]; 4Pal = N[C@@H](Cc1ccncc1)C(=O)O; αMeL = CC(C)C[C@](C)(N)C(=O)O; Iva = CC[C@](C)(N)C(=O)O; Orn = NCCC[C@H](N)C(=O)O; AEEA = NCCOCCOCC(=O)O; Aib = CC(C)(N)C(=O)O

Key:
human GIPR = biological target: T1, human GIPR (Homo sapiens, UniProt P48546); experiment: [125I]-GIP binding, SPA with WGA beads, 0.1% bacitracin; settings: geometric mean, read-out: hGIPR Ki
T1 construct: expressed in transfected cells; crude membranes
T1 sequence (P48546 22-466): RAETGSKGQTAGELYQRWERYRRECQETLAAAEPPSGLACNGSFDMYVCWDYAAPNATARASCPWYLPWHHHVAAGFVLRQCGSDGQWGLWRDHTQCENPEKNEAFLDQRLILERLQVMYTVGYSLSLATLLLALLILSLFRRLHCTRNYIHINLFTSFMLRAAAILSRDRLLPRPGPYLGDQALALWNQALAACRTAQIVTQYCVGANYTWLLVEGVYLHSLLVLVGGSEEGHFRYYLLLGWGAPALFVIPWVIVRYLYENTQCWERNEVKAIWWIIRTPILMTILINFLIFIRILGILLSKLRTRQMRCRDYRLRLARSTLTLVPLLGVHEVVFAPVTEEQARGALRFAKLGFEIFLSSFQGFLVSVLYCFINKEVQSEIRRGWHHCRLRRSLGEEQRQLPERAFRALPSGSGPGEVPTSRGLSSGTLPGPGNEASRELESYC
Summary of the method: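 Ki values are geometric means (SEM, n independent days), derived from four-parameter nonlinear regression of IC50. Membranes came from hGIPR-expressing CHO cells.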

human GLP-1R = biological target: T2, human GLP-1R (Homo sapiens, UniProt P43220); experiment: [125I]-GLP-1 binding, SPA with WGA beads, 0.1% bacitracin; settings: geometric mean, read-out: hGLP1R Ki
T2 construct: expressed in transfected cells; crude membranes
Summary of the method: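 Binding buffer was 25 mM HEPES pH 7.4 with 2.5 mM CaCl2, 1 mM MgCl2, 0.1% (w/v) bacitracin, 0.003% Tween-20 and EDTA-free protease inhibitors. Four-parameter regression gave IC50, converted to Ki (geometric mean, SEM, n independent days).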

T2 sequence (P43220 24-463): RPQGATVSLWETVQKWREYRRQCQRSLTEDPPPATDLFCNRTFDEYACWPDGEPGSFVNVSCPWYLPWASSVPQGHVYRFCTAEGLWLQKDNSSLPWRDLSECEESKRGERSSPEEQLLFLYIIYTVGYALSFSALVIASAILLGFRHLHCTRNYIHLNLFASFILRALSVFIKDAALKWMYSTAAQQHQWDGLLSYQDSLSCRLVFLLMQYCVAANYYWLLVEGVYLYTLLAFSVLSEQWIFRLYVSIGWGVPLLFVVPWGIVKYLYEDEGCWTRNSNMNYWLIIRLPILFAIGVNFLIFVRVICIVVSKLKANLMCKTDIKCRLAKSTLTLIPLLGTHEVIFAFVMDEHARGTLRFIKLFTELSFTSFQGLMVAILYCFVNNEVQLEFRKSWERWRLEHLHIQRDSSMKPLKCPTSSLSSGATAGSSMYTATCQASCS

Row | SMILES | Ki (human GIPR) | Ki (human GLP-1R)
1 | CC[C@H](C)[C@H](NC(=O)[C@H](CCCCN)NC(=O)[C@H](CC(=O)O)NC(=O)[C@H](CC(C)C)NC(=O)[C@](C)(CC(C)C)NC(=O)[C@@H](NC(=O)[C@H](CO)NC(=O)[C@H](Cc1ccc(O)cc1)NC(=O)[C@H](CC(=O)O)NC(=O)[C@H](CO)NC(=O)[C@@H](NC(=O)[C@H](Cc1ccccc1)NC(=O)[C@@H](NC(=O)CNC(=O)[C@H](CCC(=O)O)NC(=O)C(C)(C)NC(=O)[C@@H](N)Cc1ccc(O)cc1)[C@@H](C)O)[C@@H](C)CC)[C@@H](C)CC)C(=O)N[C@@H](Cc1c[nH]cn1)C(=O)N[C@@H](CCC(N)=O)C(=O)NC(C)(C)C(=O)N[C@@H](CCC(=O)O)C(=O)N[C@@H](Cc1ccccc1)C(=O)N[C@H](C(=O)N[C@@H](CCC(=O)O)C(=O)N[C@@H](Cc1ccncc1)C(=O)N[C@@H](CCCCNC(=O)COCCOCCNC(=O)COCCOCCNC(=O)CC[C@H](NC(=O)CCCCCCCCCCCCCCCCCCC(=O)O)C(=O)O)C(=O)N[C@@H](CC(C)C)C(=O)N[C@@H](CCC(=O)O)C(=O)NCC(=O)NCC(=O)N1CCC[C@H]1C(=O)N[C@@H](CO)C(=O)N[C@@H](CO)C(=O)NCC(=O)N[C@@H](C)C(=O)N1CCC[C@H]1C(=O)N1CCC[C@H]1C(=O)N1CCC[C@H]1C(=O)N[C@@H](CO)C(N)=O)C(C)C [Example 100] (H-Y[Aib]EGTFISDYSI[αMeL]LDKIHQ[Aib]EFVE[4Pal]K([AEEA-AEEA-γGlu-C20 diacid])LEGGPSSGAPPPS-NH2) | 67.4 pM | > 913000 pM
2 | CC[C@H](C)[C@H](NC(=O)[C@H](CO)NC(=O)[C@H](Cc1ccc(O)cc1)NC(=O)[C@H](CC(=O)O)NC(=O)[C@H](CO)NC(=O)[C@@H](NC(=O)[C@](C)(CC)NC(=O)[C@@H](NC(=O)CNC(=O)[C@H](CCC(=O)O)NC(=O)C(C)(C)NC(=O)[C@@H](N)Cc1ccc(O)cc1)[C@@H](C)O)[C@@H](C)CC)C(=O)N[C@@](C)(CC(C)C)C(=O)N[C@@H](CC(C)C)C(=O)N[C@@H](CC(=O)O)C(=O)N[C@@H](CCCCN)C(=O)N[C@@H](CCCCNC(=O)COCCOCCNC(=O)COCCOCCNC(=O)CC[C@H](NC(=O)CCCCCCCCCCCCCCCCCCC(=O)O)C(=O)O)C(=O)N[C@@H](Cc1c[nH]cn1)C(=O)N[C@@H](CCC(N)=O)C(=O)NC(C)(C)C(=O)N[C@@H](CC(=O)O)C(=O)N[C@@H](Cc1ccccc1)C(=O)N[C@H](C(=O)N[C@@H](CCC(=O)O)C(=O)N[C@@H](Cc1ccncc1)C(=O)N[C@@H](CC(C)C)C(=O)N[C@@H](CC(C)C)C(=O)N[C@@H](CCC(=O)O)C(=O)NCC(=O)NCC(=O)N1CCC[C@H]1C(=O)N[C@@H](CO)C(=O)N[C@@H](CO)C(=O)NCC(=O)N[C@@H](C)C(=O)N1CCC[C@H]1C(=O)N1CCC[C@H]1C(=O)N1CCC[C@H]1C(=O)N[C@@H](CO)C(N)=O)C(C)C [Example 74] (H-Y[Aib]EGT[Iva]ISDYSI[αMeL]LDKK([AEEA-AEEA-γGlu-C20 diacid])HQ[Aib]DFVE[4Pal]LLEGGPSSGAPPPS-NH2) | 28.7 pM | 395000 pM
3 | CC[C@H](C)[C@H](NC(=O)[C@H](CO)NC(=O)[C@H](Cc1ccc(O)cc1)NC(=O)[C@H](CC(=O)O)NC(=O)[C@H](CO)NC(=O)[C@@H](NC(=O)[C@](C)(Cc1ccccc1F)NC(=O)[C@@H](NC(=O)CNC(=O)[C@H](CCC(=O)O)NC(=O)C(C)(C)NC(=O)[C@@H](N)Cc1ccc(O)cc1)[C@@H](C)O)[C@@H](C)CC)C(=O)N[C@@H](C)C(=O)N[C@@H](CC(C)C)C(=O)N[C@@H](CC(=O)O)C(=O)N[C@@H](CCCCN)C(=O)N[C@H](C(=O)N[C@@H](Cc1c[nH]cn1)C(=O)N[C@@H](CCC(N)=O)C(=O)NC(C)(C)C(=O)N[C@@H](CCC(=O)O)C(=O)N[C@@H](Cc1ccccc1)C(=O)N[C@H](C(=O)N[C@@H](CC(N)=O)C(=O)N[C@@H](Cc1ccc(O)cc1)C(=O)N[C@@H](CCCCNC(=O)COCCOCCNC(=O)COCCOCCNC(=O)CC[C@H](NC(=O)CCCCCCCCCCCCCCCCCCC(=O)O)C(=O)O)C(=O)N[C@@H](CC(C)C)C(=O)N[C@@H](CCC(=O)O)C(=O)NCC(=O)NCC(=O)N1CCC[C@H]1C(=O)N[C@@H](CO)C(=O)N[C@@H](CO)C(=O)NCC(=O)N[C@@H](C)C(=O)N1CCC[C@H]1C(=O)N1CCC[C@H]1C(=O)N1CCC[C@H]1C(=O)N[C@@H](CO)C(N)=O)C(C)C)[C@@H](C)CC [Example 95] (H-Y[Aib]EGT[αMePhe(2-F)]ISDYSIALDKIHQ[Aib]EFVNYK([AEEA-AEEA-γGlu-C20 diacid])LEGGPSSGAPPPS-NH2) | 25.5 pM | 832000 pM
4 | CC[C@H](C)[C@H](NC(=O)[C@H](CCCN)NC(=O)[C@H](CC(=O)O)NC(=O)[C@H](CC(C)C)NC(=O)[C@](C)(CC(C)C)NC(=O)[C@@H](NC(=O)[C@H](CO)NC(=O)[C@H](Cc1ccc(O)cc1)NC(=O)[C@H](CC(=O)O)NC(=O)[C@H](CO)NC(=O)[C@@H](NC(=O)[C@H](Cc1ccccc1)NC(=O)[C@@H](NC(=O)CNC(=O)[C@H](CCC(=O)O)NC(=O)C(C)(C)NC(=O)[C@@H](N)Cc1ccc(O)cc1)[C@@H](C)O)[C@@H](C)CC)[C@@H](C)CC)C(=O)N[C@@H](Cc1c[nH]cn1)C(=O)N[C@@H](CCC(N)=O)C(=O)NC(C)(C)C(=O)N[C@@H](CC(=O)O)C(=O)N[C@@H](Cc1ccccc1)C(=O)N[C@H](C(=O)N[C@@H](CCC(=O)O)C(=O)N[C@@H](Cc1ccncc1)C(=O)N[C@@H](CCCCNC(=O)COCCOCCNC(=O)COCCOCCNC(=O)CC[C@H](NC(=O)CCCCCCCCCCCCCCCCC(=O)O)C(=O)O)C(=O)N[C@@H](CC(C)C)C(=O)N[C@@H](CCC(=O)O)C(=O)NCC(=O)NCC(=O)N1CCC[C@H]1C(=O)N[C@@H](CO)C(=O)N[C@@H](CO)C(=O)NCC(=O)N[C@@H](C)C(=O)N1CCC[C@H]1C(=O)N1CCC[C@H]1C(=O)N1CCC[C@H]1C(=O)N[C@@H](CO)C(N)=O)C(C)C [Example 111] (H-Y[Aib]EGTFISDYSI[αMeL]LD[Orn]IHQ[Aib]DFVE[4Pal]K([AEEA-AEEA-γGlu-C18 diacid])LEGGPSSGAPPPS-NH2) | 87.1 pM | > 908000 pM
5 | CC[C@H](C)[C@H](NC(=O)[C@H](CCCCN)NC(=O)[C@H](CC(=O)O)NC(=O)[C@H](CC(C)C)NC(=O)[C@](C)(CC(C)C)NC(=O)[C@@H](NC(=O)[C@H](CO)NC(=O)[C@H](Cc1ccc(O)cc1)NC(=O)[C@H](CC(=O)O)NC(=O)[C@H](CO)NC(=O)[C@@H](NC(=O)[C@H](Cc1ccccc1)NC(=O)[C@@H](NC(=O)CNC(=O)[C@H](CCC(=O)O)NC(=O)C(C)(C)NC(=O)[C@@H](N)Cc1ccc(O)cc1)[C@@H](C)O)[C@@H](C)CC)[C@@H](C)CC)C(=O)N[C@@H](Cc1c[nH]cn1)C(=O)N[C@@H](CCC(N)=O)C(=O)NC(C)(C)C(=O)N[C@@H](CC(=O)O)C(=O)N[C@@H](Cc1ccccc1)C(=O)N[C@H](C(=O)N[C@@H](CCC(=O)O)C(=O)N[C@@H](Cc1ccc(O)cc1)C(=O)N[C@@H](CCCCNC(=O)COCCOCCNC(=O)COCCOCCNC(=O)CC[C@H](NC(=O)CCCCCCCCCCCCCCCCCCC(=O)O)C(=O)O)C(=O)N[C@@H](CC(C)C)C(=O)N[C@@H](CCC(=O)O)C(=O)NCC(=O)NCC(=O)N1CCC[C@H]1C(=O)N[C@@H](CO)C(=O)N[C@@H](CO)C(=O)NCC(=O)N[C@@H](C)C(=O)N1CCC[C@H]1C(=O)N1CCC[C@H]1C(=O)N1CCC[C@H]1C(=O)N[C@@H](CO)C(N)=O)C(C)C [Example 5] | 77.1 pM | > 913000 pM
